The values below come from patent publication US6025387A, “Gastroprotective flavone/flavanone compounds with therapeutic effect on inflammatory bowel disease” (Dong a Pharmaceutical Co., Ltd., priority 1996, dated 2000).

Converted amounts (≈) assume the structure as drawn.

For data set [1], the system named is gastric ulcer induced by NSAIDs. Particulars: clinical; cited from earlier work.
In data set [2] the test system is gastric mucosa. Conditions: U.S. Pat. No. 5,399,584; cited from earlier work.
The subject of data set [3] is neutrophils. Briefly: Luminol-dependent chemiluminescence of neutrophils induced by FMLP. Particulars: Neutrophil, 1 μM FMLP, 0.07 mM luminol; read-out: IC50, inhibition of chemiluminescence generated by neutrophil activation. Type of data set: cell-based. The method, then:
Measurement of luminol-dependent chemiluminescencei iof neutrophil induced by FMLP.
20 mL of 12% sodium caseinate-0.9% saline was administered intraperitoneally (Newsby, A. C., Biochem. J., 1980, 186: 907,. After 20 hours, the intraperitoneal exudate was extracted under ether anesthesia. The exudate was centrifuged, and erythrocytes were removed by hypotonic lysis, and then neutrophil was washed. Neutrophil was ascertained by Wright's dyeing method, and viability was measured by Trypan blue exclusion test. Chemiluminescence was measured by Topcount (Packard Co.). The suspension of 1.5×10^6 of granulocytes, 1 μM of FMLP, 0.07 mM of luminol and the compound in HBSS was used (Dahlgren, C., et al., Infect. Immun., 1985 47: 326-328).
**IC50 (μg/mL): Concentration of the compound at inhibiting
chemiluminescence generated by neutrophil activation to 50%

The test system of data set [4] is cyclooxygenase. Briefly: Cyclooxygenase activity in HUVEC (PGE2 synthesis). It counts as cell-based. How it is done:
(§1) Measurment of Cyclooxygenase Actvity
(§2) After addition of the compound to cultured HUVEC, the HUVEC was incubated at 37° C., for 30 minutes, then arachidonic acid (final concentration: 30 .rho.M) was added, and the HUVEC was additionally incubated at 37° C. for 15 minutes. The culture medium was taken, and the activity of cyclooxygenase for 6-Keto-PGF1 α or PGE2 was measured by radioimmunoassay (Mitchell, J. A., et al., Pro. Natl. Acad. Sci. USA 1994, 90: 11693-11697).
**SC200 (μg/mL) : Concentration at increasing generation of […]

In data set [5] the test system is cyclooxygenase. The data set is described as follows: Cyclooxygenase activity in HUVEC (PGF1 α synthesis). It counts as cell-based. The method, then:
as §1, §2
**SC200 (ug/mL) : Concentration at increasing generation of […]

For data set [6], the system named is gastric mucus secretion. Briefly: Measurement of gastric mucus. Type of data set: in vivo, SD male rat. Conditions: oral, rat. How it is done:
Measurement of Gastric Mucus
The compound was orally administered into SD male rat (200~250 g). After 1 hour the stomach was extracted. The extracted stomach was immediately washed with 10 mL of cold 0.25M sucrose solution. The gastric mucosa was dyed with 0.1% alcian blue solution for 2 hours. After dyeing, the gastric mucosa was washed with 0.25M sucrose solution twice for 15 minutes and for 45 minutes. The dyed gastric mucosa was treated with 10 mL of 30% dioctyl sodium sulfosuccinate solution for 2 hours to extract dyed mucus completely and optical density of aqueous phase was measured spectrophotometrically at 655 nm. The amount of mucus in the gastric mucosa was shown as the amount of alcian blue after calibration (Kitagawa, H., et al., Drug Res. 1986, 36: 1240-1244).

Data set [7] deals with gastric mucosal damage induced by ethanolic HCl. The data set is described as follows: Gastritis model induced with ethanolic-HCl. It counts as in vivo, SD male rat. Conditions: po, 1 h, rat; for inhibition in vivo at 0.3 mg/kg: 0.3 mg/kg p.o.; for inhibition in vivo at 1 mg/kg: 1 mg/kg p.o.; for inhibition in vivo at 3 mg/kg: 3 mg/kg p.o. The method, then:
Effect on the Gastritis Model Induced with Ethanolic-HCl.
SD male rat(250-350 g) was fasted for 24 hours. The compound was orally administered in suspension of 5% HPMC, and after 1 hour 1.5 mL of 150 mM HCl-80% ethanol was orally administered. After 1 hour the rat was sacrifieced and the stomach was extracted and the ulcer index was measured. The ulcer index was shown by the area of hemorrhage lesion(Mizui, T, et al., Jpn. J. Pharmacol. 1983, 33: 939).

Data set [8] deals with T1, 5-lipoxygenase (Rattus norvegicus, UniProt P12527).
T1 construct: endogenous in cells; host or cells: casein-elicited rat peritoneal neutrophils
T1 sequence (P12527 1-673): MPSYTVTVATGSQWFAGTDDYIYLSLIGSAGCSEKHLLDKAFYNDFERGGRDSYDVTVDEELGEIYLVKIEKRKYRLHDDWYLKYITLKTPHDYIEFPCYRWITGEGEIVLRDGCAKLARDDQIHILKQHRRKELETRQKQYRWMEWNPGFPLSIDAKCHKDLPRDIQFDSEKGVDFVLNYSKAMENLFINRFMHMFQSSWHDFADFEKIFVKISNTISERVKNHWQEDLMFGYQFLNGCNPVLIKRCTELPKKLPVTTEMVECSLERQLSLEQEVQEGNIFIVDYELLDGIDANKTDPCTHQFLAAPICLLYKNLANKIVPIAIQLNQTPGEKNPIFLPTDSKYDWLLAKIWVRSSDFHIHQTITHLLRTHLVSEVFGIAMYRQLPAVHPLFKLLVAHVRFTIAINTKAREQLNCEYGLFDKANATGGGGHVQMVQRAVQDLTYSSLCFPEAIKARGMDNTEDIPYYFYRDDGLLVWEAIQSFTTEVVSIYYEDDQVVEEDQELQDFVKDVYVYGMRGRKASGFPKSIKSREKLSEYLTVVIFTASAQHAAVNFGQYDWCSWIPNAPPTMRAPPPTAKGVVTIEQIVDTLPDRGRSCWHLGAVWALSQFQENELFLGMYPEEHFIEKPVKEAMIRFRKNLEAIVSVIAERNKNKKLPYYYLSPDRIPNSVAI
Briefly: 5-lipoxygenase activity (LTB4 in A23187-stimulated peritoneal neutrophils). It counts as cell-based. How it is done:
Measurement of 5-lipooxygenase Activity
Modified Safayhi et al.'s method (Safayhi, H., et al., Biochem. Pharmacol. 1985, 34: 2691) was used to this experiment. Peritoneal neutrophil was separated from the rat which was treated with casein solution. The compound was added to 10^7 cells (5×10^6 cells/mL, 2 mL) of neutrophil after 2 minutes Ca^2+ -ionophore, A23187 (1 μg/mL) was added and the mixture was incubared at 37° C. for 10 minutes. The reaction mixture was centrifuged and the supermatant was taken up. The amount of LTB4 in the supermatant was measured by radioimmunoassay.

Data set [9] has as its system experimental ulceration. Conditions: various kinds of ulcerogens; cited from earlier work.
Data set [10] deals with leukocytes. Conditions: cited from earlier work.
In data set [11] the test system is epidermal cells of mucous membrane in gastrointestinal tracts. Conditions: cited from earlier work.
Data set [12] relates to gastric mucosal damage induced by NSAIDs. Particulars: NSAID-induced; cited from earlier work.
The subject of data set [13] is gastritis and gastric ulcer. Conditions: in vivo; cited from earlier work.

Take `CCCCC(C)(O)C/C=C/[C@H]1[C@H](O)CC(=O)[C@@H]1CCCCCCC(=O)OC` (mixture of isomers) [misoprostol]: the “prevention of NSAID-induced gastric ulcer” value in [1] is given as “prevented the gastric ulcer induced by NSAIDs”.
Turning to `COc1cccc2oc(-c3ccc(F)cc3)cc(=O)c12` [4'-fluoro-5-methoxy flavone], the “protective effect on damage of gastric mucosa” value in data set [2] is recorded as “protective effect on the damage of gastric mucosa”.
As to `COc1ccc(-c2cc(=O)c3c(O)c(OC)c(O)cc3o2)cc1OC` [5,7-dihydroxy-3',4',6-trimethoxy flavone], the figures for the IC50 in [3] and in data set [8] were 0.463 µg/mL (≈ 1.34 µM) and 13.1 µM, respectively. In data set [4], the “SC200, concentration increasing generation of PGE2 to 200%” value is 2.4 µg/mL. Besides, the “SC200, concentration increasing generation of PGF1α to 200%” value in data set [5] was determined as 3.4 µg/mL. Moreover, the “gastric mucus secretion, % Control” value in data set [6] (0.3 mg/kg) amounted to 132.2 % Control; in [6] (3 mg/kg) it was 130.7 % Control; in data set [6] (30 mg/kg) it was 116.8 % Control. The molecule also showed an inhibition in vivo at 0.3 mg/kg in [7] of 58%. This molecule returned an inhibition in vivo at 1 mg/kg in data set [7] of 64%. Further, the inhibition in vivo at 3 mg/kg in data set [7] turned out to be 80%.
As to `COc1ccc(-c2cc(=O)c3c(OC)c(OC)c(OCC(=O)O)cc3o2)cc1OC` [7-carboxymethyloxy-3',4',5,6-tetramethoxy flavone], the half-maximal inhibitory concentration (IC50) in [3] is 1.57 µg/mL (≈ 3.77 µM); in data set [8] it was 140 µM. Further, the “SC200, concentration increasing generation of PGE2 to 200%” value in data set [4] was 15.76 µg/mL. In data set [5], the “SC200, concentration increasing generation of PGF1α to 200%” value worked out at 11.09 µg/mL. Moreover, the “gastric mucus secretion, % Control” value in data set [6] (0.3 mg/kg) came out at 120 % Control; in data set [6] (3 mg/kg), 130 % Control; in data set [6] (30 mg/kg), 139 % Control. The molecule also came in with an inhibition in vivo at 0.3 mg/kg in [7] of 54%. Moreover, in [7], the inhibition in vivo at 1 mg/kg was 77%. Moreover, in [7], the inhibition in vivo at 3 mg/kg came out at 84%.
On to `CCCCC[C@H](O)/C=C/[C@H]1[C@H](O)CC(=O)[C@@H]1C/C=C\CCCC(=O)O` [PGE2], for which the “prevention of experimental ulceration” value in data set [9] is reported as “effectively prevent the experimental ulceration”.
`COc1ccc2c(c1)c(CC(=O)O)c(C)n2C(=O)c1ccc(Cl)cc1` [indomethacin]: the “leukocyte adherence to vascular endothelium” value in data set [10] is recorded as “induce adherence of leukocytes to the vascular endothelium”.
Consider `COc1ccc2[nH]c([S+]([O-])Cc3ncc(C)c(OC)c3C)nc2c1` (stereo not drawn) [omeprazole], for which the “effect of long-term administration to rats” value in data set [11] was “caused dysplasia in epidermal cells of mucous membrane in gastrointestinal tracts”.
On to catalase, for which the “reduction of gastric mucosal damage” value in [12] was “significantly reduce the extent of gastric mucosal damage induced by NSAIDs”.
Consider sucralfate, for which, in data set [13], the frequency of recurrence result is reported as “low frequency of recurrence”.
